# Reference: ChEMBL document CHEMBL4024706 (Eur J Med Chem, 2017)
# Assays:
# MV4-11 = experiment: Growth inhibition of human MV411 cells; assay type: functional; settings: Homo sapiens, MV4-11
# Pfeiffer = experiment: Growth inhibition of human Pfeiffer cells; assay type: functional; settings: Homo sapiens, Pfeiffer
# [1] = Cmax in Sprague-Dawley rat at 10 mg/kg, po by LC-MS/MS method; assay type: ADME, organism-based; parameters: dose 10 mg/kg, route oral; settings: in vivo
# [2] = system: Tyrosine-protein kinase ABL1 (Homo sapiens), P00519 [F317I]; experiment: Inhibition of human non-phosphorylated ABL1 F317I mutant (S229 to K512 residues) expressed in mammalian expression system assessed as residual activity at 1 uM by Kinomescan method relative to control
# [3] = biological target: ALK tyrosine kinase receptor (Homo sapiens) (UniProt Q9UM73); experiment: Inhibition of wild-type human partial length ALK (I1088 to E1409 residues) expressed in mammalian expression system assessed as residual activity at 1 uM by Kinomescan method relative to control
# [4] = system: ALK tyrosine kinase receptor (Homo sapiens), Q9UM73 [C1156Y]; experiment: Inhibition of […] human partial length ALK C1156Y mutant (I1088 to E1409 residues) expressed in mammalian expression system assessed as residual activity at 1 uM by Kinomescan method relative to control
# [5] = biological target: 5'-AMP-activated protein kinase catalytic subunit alpha-1 (Homo sapiens) (UniProt Q13131); experiment: Inhibition of wild-type human partial length AMPK alpha1 (M1 to E306 residues) expressed in bacterial expression system assessed as residual activity at 1 uM by Kinomescan method relative to control
# [6] = biological target: Ephrin type-A receptor 4 (Homo sapiens) (UniProt P54764); experiment: Inhibition of wild-type human partial length EPHA4 (T601 to R897 residues) expressed in bacterial expression system assessed as residual activity at 1 uM by Kinomescan method relative to control
# [7] = biological target: Ephrin type-B receptor 4 (Homo sapiens) (UniProt P54760); experiment: Inhibition of wild-type human partial length EPHB4 (H585 to G892 residues) expressed in bacterial expression system assessed as residual activity at 1 uM by Kinomescan method relative to control
# [8] = biological target: Fibroblast growth factor receptor 1 (Homo sapiens) (UniProt P11362); experiment: Inhibition of wild-type human partial length FGFR1 (P357 to V669 residues) expressed in bacterial expression system assessed as residual activity at 1 uM by Kinomescan method relative to control
# [9] = system: Receptor-type tyrosine-protein kinase FLT3 (Homo sapiens), P36888 [D835Y]; experiment: Inhibition of human partial length FLT3 D835Y mutant (Q580 to Y969 residues) expressed in bacterial expression system assessed as residual activity at 1 uM by Kinomescan method relative to control
# [10] = system: Mast/stem cell growth factor receptor Kit (Homo sapiens), P10721 [D816V]; experiment: Inhibition of human partial length KIT D816V mutant (I571 to D952 residues) expressed in bacterial expression system assessed as residual activity at 1 uM by Kinomescan method relative to control
# [11] = system: Leucine-rich repeat serine/threonine-protein kinase 2 (Homo sapiens), Q5S007 [G2019S]; experiment: Inhibition of human partial length LRRK2 G2019S mutant (H970 to E2527 residues) expressed in mammalian expression system assessed as residual activity at 1 uM by Kinomescan method relative to control
# [12] = biological target: MAP kinase-activated protein kinase 2 (Homo sapiens) (UniProt P49137); experiment: Inhibition of wild-type human partial length MAPKAPK2 (V48 to D345 residues) expressed in bacterial expression system assessed as residual activity at 1 uM by Kinomescan method relative to control
# [13] = biological target: MAP kinase-activated protein kinase 5 (Homo sapiens) (UniProt Q8IW41); experiment: Inhibition of wild-type human partial length MAPKAPK5 (M1 to D322 residues) expressed in mammalian expression system assessed as residual activity at 1 uM by Kinomescan method relative to control
# [14] = biological target: Serine/threonine-protein kinase MARK2 (Homo sapiens) (UniProt Q7KZI7); experiment: Inhibition of wild-type human partial length MARK2 (M1 to R450 residues) expressed in bacterial expression system assessed as residual activity at 1 uM by Kinomescan method relative to control
# [15] = biological target: Misshapen-like kinase 1 (Homo sapiens) (UniProt Q8N4C8); experiment: Inhibition of wild-type human partial length MINK (M1 to K312 residues) expressed in mammalian expression system assessed as residual activity at 1 uM by Kinomescan method relative to control
# [16] = biological target: Serine/threonine-protein kinase Nek10 (Homo sapiens) (UniProt Q6ZWH5); experiment: Inhibition of wild-type human partial length NEK10 (L488 to R809 residues) expressed in mammalian expression system assessed as residual activity at 1 uM by Kinomescan method relative to control
# [17] = biological target: Mitogen-activated protein kinase 14 (Homo sapiens) (UniProt Q16539); experiment: Inhibition of wild-type human full length p38-alpha (M1 to S360 residues) expressed in bacterial expression system assessed as residual activity at 1 uM by Kinomescan method relative to control
# [18] = biological target: Calcium-dependent protein kinase 1 (Plasmodium falciparum) (UniProt P62344); experiment: Inhibition of wild-type Plasmodium falciparum isolate 3D7 full length CDPK1 (M1 to S524 residues) expressed in mammalian expression system assessed as residual activity at 1 uM by Kinomescan method relative to control
# [19] = biological target: Cyclin-dependent kinase 15 (Homo sapiens) (UniProt Q96Q40); experiment: Inhibition of wild-type human full length PFTAIRE2 (M1 to W384 residues) expressed in bacterial expression system assessed as residual activity at 1 uM by Kinomescan method relative to control
# [20] = system: Phosphatidylinositol 4,5-bisphosphate 3-kinase catalytic subunit alpha isoform (Homo sapiens), P42336 [E545A]; experiment: Inhibition of human partial length PIK3CA E545A mutant (R108 to N1068 residues) expressed in mammalian expression system assessed as residual activity at 1 uM by Kinomescan method relative to control
# [21] = biological target: Protein-tyrosine kinase 2-beta (Homo sapiens) (UniProt Q14289); experiment: Inhibition of wild-type human full length PYK2 (M1 to E967 residues) expressed in bacterial expression system assessed as residual activity at 1 uM by Kinomescan method relative to control
# [22] = biological target: Ribosomal protein S6 kinase alpha-3 (Homo sapiens) (UniProt P51812); experiment: Inhibition of wild-type human partial length C-terminal RSK2 kinase domain 2 (V402 to S715 residues) expressed in mammalian expression system assessed as residual activity at 1 uM by Kinomescan method relative to control
# [23] = biological target: Uncharacterized serine/threonine-protein kinase SBK3 (Homo sapiens) (UniProt P0C264); experiment: Inhibition of wild-type human partial length SgK110 (L22 to R329 residues) expressed in bacterial expression system assessed as residual activity at 1 uM by Kinomescan method relative to control
# [24] = biological target: Serine/threonine-protein kinase TBK1 (Homo sapiens) (UniProt Q9UHD2); experiment: Inhibition of wild-type human full length TBK1 (M1 to L729 residues) expressed in mammalian expression system assessed as residual activity at 1 uM by Kinomescan method relative to control
# Chain of Leucine-rich repeat serine/threonine-protein kinase 2 (Homo sapiens), Q5S007 [G2019S] (Q5S007 whole entry G2019S, the tested form may be a part): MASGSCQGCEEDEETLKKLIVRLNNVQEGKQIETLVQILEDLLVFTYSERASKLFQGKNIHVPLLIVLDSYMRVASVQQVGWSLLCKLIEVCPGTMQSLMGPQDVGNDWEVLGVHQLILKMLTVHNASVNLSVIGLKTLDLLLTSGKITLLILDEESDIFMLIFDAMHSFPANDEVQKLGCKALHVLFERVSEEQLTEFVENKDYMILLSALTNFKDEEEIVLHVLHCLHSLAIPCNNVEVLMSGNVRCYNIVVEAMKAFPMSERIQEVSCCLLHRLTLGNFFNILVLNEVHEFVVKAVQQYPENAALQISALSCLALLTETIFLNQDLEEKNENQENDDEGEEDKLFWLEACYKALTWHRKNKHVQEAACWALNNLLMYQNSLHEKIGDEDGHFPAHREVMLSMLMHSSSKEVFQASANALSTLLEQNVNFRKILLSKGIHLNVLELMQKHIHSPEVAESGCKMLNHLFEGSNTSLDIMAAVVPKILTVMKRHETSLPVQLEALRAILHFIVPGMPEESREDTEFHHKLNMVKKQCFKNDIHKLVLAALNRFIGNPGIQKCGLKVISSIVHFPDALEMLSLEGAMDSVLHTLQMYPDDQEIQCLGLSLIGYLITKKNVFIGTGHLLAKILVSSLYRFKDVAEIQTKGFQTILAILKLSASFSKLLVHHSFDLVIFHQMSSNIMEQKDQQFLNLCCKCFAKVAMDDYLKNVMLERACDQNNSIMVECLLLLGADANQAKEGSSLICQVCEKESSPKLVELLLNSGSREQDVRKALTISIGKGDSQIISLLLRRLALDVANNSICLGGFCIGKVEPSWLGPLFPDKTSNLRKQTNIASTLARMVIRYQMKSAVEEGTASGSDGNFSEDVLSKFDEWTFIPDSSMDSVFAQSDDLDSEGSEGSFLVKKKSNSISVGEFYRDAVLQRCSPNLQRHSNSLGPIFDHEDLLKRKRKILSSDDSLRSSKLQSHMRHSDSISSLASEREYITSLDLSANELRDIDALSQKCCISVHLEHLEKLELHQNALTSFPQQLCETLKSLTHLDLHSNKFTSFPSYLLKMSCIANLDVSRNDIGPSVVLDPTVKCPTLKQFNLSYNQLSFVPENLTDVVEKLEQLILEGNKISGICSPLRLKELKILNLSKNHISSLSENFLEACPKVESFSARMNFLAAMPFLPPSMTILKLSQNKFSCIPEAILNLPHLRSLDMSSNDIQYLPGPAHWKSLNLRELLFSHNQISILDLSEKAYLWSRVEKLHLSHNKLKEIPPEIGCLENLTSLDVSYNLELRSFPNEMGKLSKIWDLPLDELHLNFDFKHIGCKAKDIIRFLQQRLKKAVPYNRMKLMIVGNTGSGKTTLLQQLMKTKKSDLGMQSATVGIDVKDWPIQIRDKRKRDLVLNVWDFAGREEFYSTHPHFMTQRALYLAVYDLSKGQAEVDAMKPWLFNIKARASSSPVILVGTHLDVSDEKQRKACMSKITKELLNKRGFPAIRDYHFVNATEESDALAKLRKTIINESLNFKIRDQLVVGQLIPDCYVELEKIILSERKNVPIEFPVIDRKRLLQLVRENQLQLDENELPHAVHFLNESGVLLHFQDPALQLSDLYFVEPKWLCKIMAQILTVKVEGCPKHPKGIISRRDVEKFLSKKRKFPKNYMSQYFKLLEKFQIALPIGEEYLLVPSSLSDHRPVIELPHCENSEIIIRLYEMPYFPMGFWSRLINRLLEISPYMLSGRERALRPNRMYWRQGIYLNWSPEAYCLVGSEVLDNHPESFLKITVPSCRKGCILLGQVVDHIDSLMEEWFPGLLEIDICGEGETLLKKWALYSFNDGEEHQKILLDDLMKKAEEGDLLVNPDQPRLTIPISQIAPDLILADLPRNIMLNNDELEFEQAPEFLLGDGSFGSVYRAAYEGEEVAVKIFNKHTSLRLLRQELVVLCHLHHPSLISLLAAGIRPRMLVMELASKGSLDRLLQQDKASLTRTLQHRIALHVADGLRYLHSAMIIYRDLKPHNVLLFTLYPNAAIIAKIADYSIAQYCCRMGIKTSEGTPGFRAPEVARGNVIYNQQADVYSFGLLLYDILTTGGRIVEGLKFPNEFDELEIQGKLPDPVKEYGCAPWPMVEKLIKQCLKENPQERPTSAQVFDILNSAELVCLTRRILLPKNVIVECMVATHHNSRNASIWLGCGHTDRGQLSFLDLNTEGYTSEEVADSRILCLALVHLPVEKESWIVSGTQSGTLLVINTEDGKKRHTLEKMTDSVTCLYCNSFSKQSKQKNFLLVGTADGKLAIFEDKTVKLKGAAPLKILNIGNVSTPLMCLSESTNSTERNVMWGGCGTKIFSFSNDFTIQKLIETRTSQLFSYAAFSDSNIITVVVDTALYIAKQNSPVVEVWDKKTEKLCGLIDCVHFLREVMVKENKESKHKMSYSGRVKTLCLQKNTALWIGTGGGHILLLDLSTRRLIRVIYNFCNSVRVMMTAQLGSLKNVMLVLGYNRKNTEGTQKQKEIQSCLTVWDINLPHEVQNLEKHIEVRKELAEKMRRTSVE
# Chain of Protein-tyrosine kinase 2-beta (Homo sapiens) (Q14289 whole entry, looked up, the tested form may be a part): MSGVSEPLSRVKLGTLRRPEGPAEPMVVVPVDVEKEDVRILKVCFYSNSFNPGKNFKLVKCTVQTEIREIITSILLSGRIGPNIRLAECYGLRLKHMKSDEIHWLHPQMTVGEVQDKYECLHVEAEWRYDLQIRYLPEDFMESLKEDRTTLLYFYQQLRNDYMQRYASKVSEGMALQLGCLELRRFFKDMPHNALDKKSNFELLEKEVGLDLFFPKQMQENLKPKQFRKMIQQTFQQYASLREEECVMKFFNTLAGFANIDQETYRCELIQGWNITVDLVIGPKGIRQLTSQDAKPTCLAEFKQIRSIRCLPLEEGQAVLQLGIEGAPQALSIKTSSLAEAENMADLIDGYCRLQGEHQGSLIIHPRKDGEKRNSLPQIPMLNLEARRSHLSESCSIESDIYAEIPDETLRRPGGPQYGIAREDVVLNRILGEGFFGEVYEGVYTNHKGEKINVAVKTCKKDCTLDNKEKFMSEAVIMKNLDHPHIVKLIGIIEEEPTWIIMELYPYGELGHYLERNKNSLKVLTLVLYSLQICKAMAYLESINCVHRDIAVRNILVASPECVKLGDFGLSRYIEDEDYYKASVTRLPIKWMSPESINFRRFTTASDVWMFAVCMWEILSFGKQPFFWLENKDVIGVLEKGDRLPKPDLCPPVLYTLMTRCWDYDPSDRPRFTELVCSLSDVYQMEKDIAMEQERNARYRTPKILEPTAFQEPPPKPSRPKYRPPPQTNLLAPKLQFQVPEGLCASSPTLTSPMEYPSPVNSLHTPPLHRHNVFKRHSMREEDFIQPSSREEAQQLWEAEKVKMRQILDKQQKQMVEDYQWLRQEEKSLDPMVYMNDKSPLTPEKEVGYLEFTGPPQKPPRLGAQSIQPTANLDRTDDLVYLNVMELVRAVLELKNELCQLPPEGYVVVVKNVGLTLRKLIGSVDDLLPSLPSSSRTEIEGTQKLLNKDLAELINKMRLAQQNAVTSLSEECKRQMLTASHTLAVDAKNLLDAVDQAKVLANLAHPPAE
# Chain of ALK tyrosine kinase receptor (Homo sapiens), Q9UM73 [C1156Y] (Q9UM73 whole entry C1156Y, looked up, the tested form may be a part): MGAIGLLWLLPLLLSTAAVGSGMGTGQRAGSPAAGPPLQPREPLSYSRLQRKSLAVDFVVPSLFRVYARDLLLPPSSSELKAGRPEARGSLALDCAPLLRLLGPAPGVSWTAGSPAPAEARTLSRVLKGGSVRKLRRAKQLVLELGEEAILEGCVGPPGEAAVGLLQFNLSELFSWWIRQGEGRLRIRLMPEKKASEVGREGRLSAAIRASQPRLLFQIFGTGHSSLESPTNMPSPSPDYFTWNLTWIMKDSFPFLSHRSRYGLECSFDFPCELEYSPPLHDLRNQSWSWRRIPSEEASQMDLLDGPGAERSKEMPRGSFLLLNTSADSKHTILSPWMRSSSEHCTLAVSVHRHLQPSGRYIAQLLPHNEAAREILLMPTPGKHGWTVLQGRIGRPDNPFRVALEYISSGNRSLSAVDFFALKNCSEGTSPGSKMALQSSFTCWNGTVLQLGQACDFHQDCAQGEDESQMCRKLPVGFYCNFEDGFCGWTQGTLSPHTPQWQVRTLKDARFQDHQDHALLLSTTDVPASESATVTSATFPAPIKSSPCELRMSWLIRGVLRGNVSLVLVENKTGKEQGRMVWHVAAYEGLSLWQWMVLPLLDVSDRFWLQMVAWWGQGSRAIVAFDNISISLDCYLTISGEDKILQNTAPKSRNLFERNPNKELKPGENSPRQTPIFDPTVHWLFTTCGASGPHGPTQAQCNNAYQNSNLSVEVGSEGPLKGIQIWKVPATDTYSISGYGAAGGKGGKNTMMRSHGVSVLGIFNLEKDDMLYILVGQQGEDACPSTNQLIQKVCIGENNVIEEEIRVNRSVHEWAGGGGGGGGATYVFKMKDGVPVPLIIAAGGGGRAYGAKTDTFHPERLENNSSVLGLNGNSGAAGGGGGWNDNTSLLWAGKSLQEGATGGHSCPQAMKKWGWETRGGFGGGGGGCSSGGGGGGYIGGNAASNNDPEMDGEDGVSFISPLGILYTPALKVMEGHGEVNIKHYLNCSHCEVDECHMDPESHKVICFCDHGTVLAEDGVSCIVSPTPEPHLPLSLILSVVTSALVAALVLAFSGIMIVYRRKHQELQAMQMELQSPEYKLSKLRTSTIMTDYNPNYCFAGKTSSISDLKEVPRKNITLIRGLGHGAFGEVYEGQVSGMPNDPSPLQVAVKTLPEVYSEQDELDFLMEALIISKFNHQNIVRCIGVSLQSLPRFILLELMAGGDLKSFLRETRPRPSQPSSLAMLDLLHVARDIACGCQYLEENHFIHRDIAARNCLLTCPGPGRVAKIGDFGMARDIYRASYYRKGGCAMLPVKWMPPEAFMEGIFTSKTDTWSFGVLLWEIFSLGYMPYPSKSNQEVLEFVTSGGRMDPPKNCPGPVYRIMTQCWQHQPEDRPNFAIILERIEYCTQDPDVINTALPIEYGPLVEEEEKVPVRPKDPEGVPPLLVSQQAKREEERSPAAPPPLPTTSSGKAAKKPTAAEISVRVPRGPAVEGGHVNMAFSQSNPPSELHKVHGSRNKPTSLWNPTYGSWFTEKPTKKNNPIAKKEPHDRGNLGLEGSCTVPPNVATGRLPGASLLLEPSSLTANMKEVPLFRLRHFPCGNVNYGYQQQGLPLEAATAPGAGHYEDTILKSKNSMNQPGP
smiles,measurement,setting,value
C=CC(=O)Nc1cc(Nc2cc(-c3cccc(NC(=O)c4ccc(C(C)(C)C)cc4)c3C)cn(C)c2=O)ccc1C(=O)N1CCOCC1,GI50,MV4-11,2.1 µM
same,GI50,Pfeiffer,4.5 µM
same,Cmax,[1],32.8 ng/mL
same,Activity,[2],78%
same,Activity,[3],94%
same,Activity,[4],94%
same,Activity,[5],89%
same,Activity,[6],83%
same,Activity,[7],88%
same,Activity,[8],94%
same,Activity,[9],97%
same,Activity,[10],92%
same,Activity,[11],58%
same,Activity,[12],88%
same,Activity,[13],100%
same,Activity,[14],99%
same,Activity,[15],82%
same,Activity,[16],92%
same,Activity,[17],100%
same,Activity,[18],85%
same,Activity,[19],97%
same,Activity,[20],96%
same,Activity,[21],100%
same,Activity,[22],96%
same,Activity,[23],77%
same,Activity,[24],100%
